Assay results taken from patent US12668845B2, “Methods for predicting drug responsiveness in cancer patients” (Allarity Therapeutics Europe ApS, priority 2018, dated 2026).

Experiments:
T47D = assay: Growth inhibition of cell lines treated with 2X-121; assay type: cell-based; settings: Homo sapiens; cell line T47D, origin Breast; read-out: Measured growth inhibition IC50
MDA-MB-231 = assay: as above; assay type: cell-based; settings: Homo sapiens; cell line MDA-MB-231, origin Breast; read-out: Measured growth inhibition IC50
HCC70 = assay: as above; assay type: cell-based; settings: Homo sapiens; cell line HCC70, origin Breast; read-out: Measured growth inhibition IC50
MDA-MB-436 = assay: as above; assay type: cell-based; settings: Homo sapiens; cell line MDA-MB-436, origin Breast; read-out: Measured growth inhibition IC50
MDA-MB-157 = assay: as above; assay type: cell-based; settings: Homo sapiens; cell line MDA-MB-157, origin Breast; read-out: Measured growth inhibition IC50
MDA-MB-468 = assay: as above; assay type: cell-based; settings: Homo sapiens; cell line MDA-MB-468, origin Breast; read-out: Measured growth inhibition IC50
M14 = assay: as above; assay type: cell-based; settings: Homo sapiens; cell line M14, origin Melanoma; read-out: Measured growth inhibition IC50
SF-295 = assay: as above; assay type: cell-based; settings: Homo sapiens; cell line SF-295, origin GBM; read-out: Measured growth inhibition IC50
HCT-116 = assay: as above; assay type: cell-based; settings: Homo sapiens; cell line HCT-116, origin Colon; read-out: Measured growth inhibition IC50
HepG2 = assay: as above; assay type: cell-based; settings: Homo sapiens; cell line HepG2, origin HCC; read-out: Measured growth inhibition IC50
SNU-423 = assay: as above; assay type: cell-based; settings: Homo sapiens; cell line SNU-423, origin HCC; read-out: Measured growth inhibition IC50
SNU-182 = assay: as above; assay type: cell-based; settings: Homo sapiens; cell line SNU-182, origin HCC; read-out: Measured growth inhibition IC50
HEC-251 = assay: as above; assay type: cell-based; settings: cell line HEC-251, origin Endometrial; read-out: Measured growth inhibition IC50
SNG-II = assay: as above; assay type: cell-based; settings: cell line SNG-II, origin Endometrial; read-out: Measured growth inhibition IC50
HEC-1B = assay: as above; assay type: cell-based; settings: Homo sapiens; cell line HEC-1B, origin Endometrial; read-out: Measured growth inhibition IC50
HEC-1A = assay: as above; assay type: cell-based; settings: Homo sapiens; cell line HEC-1A, origin Endometrial; read-out: Measured growth inhibition IC50
MFE-296 = assay: as above; assay type: cell-based; settings: Homo sapiens; cell line MFE-296, origin Endometrial; read-out: Measured growth inhibition IC50
HEC-151 = assay: as above; assay type: cell-based; settings: cell line HEC-151, origin Endometrial; read-out: Measured growth inhibition IC50
AN3 CA = assay: as above; assay type: cell-based; settings: Homo sapiens; cell line AN3 CA, origin Endometrial; read-out: Measured growth inhibition IC50
NCI-H1694 = assay: as above; assay type: cell-based; settings: Homo sapiens; cell line NCI-H1694, origin SCLC; read-out: Measured growth inhibition IC50
NCI-H209 = assay: as above; assay type: cell-based; settings: Homo sapiens; cell line NCI-H209, origin SCLC; read-out: Measured growth inhibition IC50
NCI-H146 = assay: as above; assay type: cell-based; settings: Homo sapiens; cell line NCI-H146, origin SCLC; read-out: Measured growth inhibition IC50
NCI-H211 = assay: as above; assay type: cell-based; settings: Homo sapiens; cell line NCI-H211, origin SCLC; read-out: Measured growth inhibition IC50
HL-60 = assay: as above; assay type: cell-based; settings: Homo sapiens; cell line HL-60, origin Promyelocytic leukemia; read-out: Measured growth inhibition IC50
K562 = assay: as above; assay type: cell-based; settings: Homo sapiens; cell line K562, origin Erythroleukemia from CML Pt; read-out: Measured growth inhibition IC50
U937 = assay: as above; assay type: cell-based; settings: Homo sapiens, U-937; cell line U937, origin Histiocytic lymphoma-monocytic; read-out: Measured growth inhibition IC50
Namalwa = assay: as above; assay type: cell-based; settings: cell line Namalwa, origin Burkitts lymphoma; read-out: Measured growth inhibition IC50
DB = assay: as above; assay type: cell-based; settings: Homo sapiens; cell line DB, origin DLBCL (GC); read-out: Measured growth inhibition IC50
JVM-13 = assay: as above; assay type: cell-based; settings: JVM13; cell line JVM-13, origin MCL; read-out: Measured growth inhibition IC50
Mino = assay: as above; assay type: cell-based; settings: Homo sapiens; cell line Mino, origin MCL; read-out: Measured growth inhibition IC50
MV-4-11 = assay: as above; assay type: cell-based; settings: Homo sapiens, MV4-11; cell line MV-4-11, origin AML; read-out: Measured growth inhibition IC50
RPMI-8226 = assay: as above; assay type: cell-based; settings: Homo sapiens; cell line RPMI-8226, origin Myeloma; read-out: Measured growth inhibition IC50
[1] = in vivo; cited from earlier work

Structure (SMILES): O=c1[nH]nc2c3c(cccc13)N=C(CN1Cc3ccccc3C1)N2 [2X-121, 8-(isoindolin-2-ylmethyl)-2,9-dihydro-3H-pyridazino[3,4,5-de]quinazolin-3-one]
- IC50 (T47D): 7800 nM
- IC50 (MDA-MB-231): 25000 nM
- IC50 (HCC70): 9300 nM
- IC50 (MDA-MB-436): 190 nM
- IC50 (MDA-MB-157): 6800 nM
- IC50 (MDA-MB-468): 2500 nM
- IC50 (M14): 6700 nM
- IC50 (SF-295): 2600 nM
- IC50 (HCT-116): 1700 nM
- IC50 (HepG2): 3800 nM
- IC50 (SNU-423): 19000 nM
- IC50 (SNU-182): 5400 nM
- IC50 (HEC-251): 1260 nM
- IC50 (SNG-II): 5260 nM
- IC50 (HEC-1B): 7270 nM
- IC50 (HEC-1A): 2960 nM
- IC50 (MFE-296): 670 nM
- IC50 (HEC-151): 1440 nM
- IC50 (AN3 CA): 1490 nM
- IC50 (NCI-H1694): 2470 nM
- IC50 (NCI-H209): 620 nM
- IC50 (NCI-H146): 930 nM
- IC50 (NCI-H211): 480 nM
- IC50 (HL-60): 10300 nM
- IC50 (K562): 4300 nM
- IC50 (U937): 2700 nM
- IC50 (Namalwa): 2500 nM
- IC50 (DB): 1600 nM
- IC50 (JVM-13): 7300 nM
- IC50 (Mino): 3400 nM
- IC50 (MV-4-11): 950 nM
- IC50 (RPMI-8226): 9300 nM
- brain penetration [1]: brain penetrable
